Laboratory results: US12350273B2, “Treatment of SMA” (Hoffmann-La Roche Inc., priority 2017, dated 2025)

Experiments:
[1] = system: Cynomolgus monkey iPSCs; experiment: Cell cycle analysis of Cynomolgus monkey iPSCs (flow cytometry); assay type: cell-based; conditions: Cynomolgus monkey iPSCs, 24 h, 30 nM (positive control)
Experimental: (§1) For the analysis of the cell cycle, monkey stem cells were detached with Accutase (Stem Cell Technologies) and plated at 15000 cells/cm2 in 6 well plates coated with Matrigel (BD Biosciences) in MT medium supplemented with 10 ng/ml ActivinA, 15 ng/ml FGF2, and 10 μM Rock inhibitor. Cells were expanded for 1 day and then synchronized by starvation for 7 h in MT medium without supplements FGF2 and ActivinA. Before flow cytometry, cells were incubated for 24 h with fresh MT medium containing supplements FGF2 and ActivinA and test items at 80 nM, 400 nM, and 2000 nM or 30 nM rapamycin as positive control to arrest cells in G1 phase. Human stem cells were detached with Accutase (Stem Cell Technologies) and plated at 40000 cells/cm2 in 6 well plates coated with Matrigel (BD Biosciences) in mTeSR1 supplemented with 10 μM Rock Inhibitor Y-27632 (Sigma-Aldrich). Cells were expanded for 3 days with daily medium change. Since human iPSCs lose their properties during starvation by growth factor withdrawal, stem cells were synchronized with 200 ng/ml Nocodazole (Sigma-Aldrich) for 5 h and washed subsequently 2 times with mTesR1 Medium. Before flow cytometry, cells were incubated for 24 h with fresh TesR1 medium containing test items at 80 nM, 400 nM, and 2000 nM or 30 nM rapamycin as positive control to arrest cells in G1 phase.
(§2) For cell cycle analysis, human iPSCs were washed with PBS, detached with Accutase (Stem Cell Technologies) and collected by centrifugation. Cells were stained for 1 h at 37° C. with 600 ul of 7 AAD/Saponin/RNAse mix ([…] 7 AAD (#559925, BD), 50 μg/ml RNase, and 0.03% Saponin dissolved in FACS buffer (PBS, 5% FBS, 10 mM Hepes)). Cynomolgus monkey iPSCs were washed with PBS, detached with Accutase (Stem Cell Technologies) and collected by centrifugation. Cells were stained for 30 min at 37° C. in 300 ul standard MT medium (with FGF2 and ActivinA) containing 1 ul Vybrant Dye Cycle Violet Stain (#V35003, 1000× stock, Invitrogen) per ml medium. Additionally 2 ul 7 AAD (50 μg/ml 7 AAD) were added without permeabilization to label dead cells; cells were incubated for 10 min at 37° C. Flow cytometry analysis was performed using a Canto II cytometer (BD Biosciences) and data were analysed with the FlowJo software.

[2] = system: human iPSCs; experiment: Cell cycle analysis of human iPSCs (flow cytometry); assay type: cell-based; conditions: 24 h, 30 nM (positive control)
Experimental: as §1, §2

CO[C@H]1C[C@@H]2CC[C@@H](C)[C@@](O)(O2)C(=O)C(=O)N2CCCC[C@H]2C(=O)O[C@H]([C@H](C)C[C@@H]2CC[C@@H](O)[C@H](OC)C2)CC(=O)[C@H](C)/C=C(\C)[C@@H](O)[C@@H](OC)C(=O)[C@H](C)C[C@H](C)/C=C/C=C/C=C/1C [Rapamycin, reference compound]
percentage of events in G1 phase, mean [1]: 41.7% | percentage of events in G2 phase, mean [1]: 45.6% | percentage of events in S phase, mean [1]: 12.7% | percentage of events in G1 phase, mean [2]: 58.3% | percentage of events in G2 phase, mean [2]: 30.5% | percentage of events in S phase, mean [2]: 11.2%
